Data published in PMC4256678 (Nature neuroscience, 2014).

Tests used:
[1] = molecular target: T1, HDAC3 (Homo sapiens, UniProt O15379); assay: fluorometric HDAC activity assay, […]; format: biochemical
[2] = molecular target: T2, HDAC2 (Homo sapiens, UniProt Q92769); assay: fluorometric HDAC activity assay, […]; format: biochemical
[3] = molecular target: T3, HDAC8 (Homo sapiens, UniProt Q9BY41); assay: fluorometric HDAC activity assay, […]; format: biochemical
T3 sequence (Q9BY41 1-377): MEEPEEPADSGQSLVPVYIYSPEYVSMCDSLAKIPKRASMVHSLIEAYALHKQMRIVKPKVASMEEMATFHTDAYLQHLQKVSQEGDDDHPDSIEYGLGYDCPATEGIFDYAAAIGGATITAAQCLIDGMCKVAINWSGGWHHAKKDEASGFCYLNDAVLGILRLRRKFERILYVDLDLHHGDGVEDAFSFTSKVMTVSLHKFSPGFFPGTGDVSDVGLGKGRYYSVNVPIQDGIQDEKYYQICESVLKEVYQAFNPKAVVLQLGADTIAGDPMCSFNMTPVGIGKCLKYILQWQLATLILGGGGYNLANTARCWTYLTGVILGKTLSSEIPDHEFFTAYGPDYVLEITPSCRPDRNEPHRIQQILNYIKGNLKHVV

[4] = molecular target: HDAC1 (Homo sapiens, UniProt Q13547); assay: […]FTY720-P radioligand binding and displacement on Ni-NTA immobilized HDAC1
[5] = molecular target: T2, HDAC2; assay: fluorometric HDAC activity assay, […]; format: biochemical; remark: listed apart in the source
[6] = molecular target: T1, HDAC3; assay: fluorometric HDAC activity assay, […]; format: biochemical; remark: listed apart in the source

T2 sequence (Q92769 whole entry): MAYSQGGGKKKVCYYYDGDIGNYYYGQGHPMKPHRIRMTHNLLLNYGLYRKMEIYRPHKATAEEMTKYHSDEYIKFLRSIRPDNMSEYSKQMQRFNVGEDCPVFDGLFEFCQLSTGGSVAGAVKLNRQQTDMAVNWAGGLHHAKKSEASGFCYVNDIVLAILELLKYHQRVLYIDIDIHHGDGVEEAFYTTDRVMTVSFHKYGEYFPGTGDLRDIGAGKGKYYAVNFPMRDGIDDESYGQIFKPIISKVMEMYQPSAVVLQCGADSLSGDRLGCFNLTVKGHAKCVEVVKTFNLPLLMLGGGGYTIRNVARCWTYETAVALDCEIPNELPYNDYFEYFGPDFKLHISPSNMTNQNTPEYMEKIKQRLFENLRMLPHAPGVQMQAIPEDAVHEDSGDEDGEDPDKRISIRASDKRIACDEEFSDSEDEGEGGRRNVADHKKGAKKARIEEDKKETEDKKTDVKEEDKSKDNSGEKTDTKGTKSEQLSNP
T1 sequence (O15379 whole entry): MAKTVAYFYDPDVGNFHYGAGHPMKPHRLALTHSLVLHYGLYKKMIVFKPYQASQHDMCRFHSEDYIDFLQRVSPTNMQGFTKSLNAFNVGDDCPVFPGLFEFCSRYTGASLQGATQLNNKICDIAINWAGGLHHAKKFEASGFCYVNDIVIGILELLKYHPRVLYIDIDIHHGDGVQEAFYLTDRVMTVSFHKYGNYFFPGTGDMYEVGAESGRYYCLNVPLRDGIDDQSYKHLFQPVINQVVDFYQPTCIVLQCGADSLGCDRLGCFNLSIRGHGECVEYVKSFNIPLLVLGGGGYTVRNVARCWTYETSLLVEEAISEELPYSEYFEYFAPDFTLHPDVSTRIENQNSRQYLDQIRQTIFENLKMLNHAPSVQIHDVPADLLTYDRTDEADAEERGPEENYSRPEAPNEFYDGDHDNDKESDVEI
Sequence of HDAC1 (Q13547 whole entry): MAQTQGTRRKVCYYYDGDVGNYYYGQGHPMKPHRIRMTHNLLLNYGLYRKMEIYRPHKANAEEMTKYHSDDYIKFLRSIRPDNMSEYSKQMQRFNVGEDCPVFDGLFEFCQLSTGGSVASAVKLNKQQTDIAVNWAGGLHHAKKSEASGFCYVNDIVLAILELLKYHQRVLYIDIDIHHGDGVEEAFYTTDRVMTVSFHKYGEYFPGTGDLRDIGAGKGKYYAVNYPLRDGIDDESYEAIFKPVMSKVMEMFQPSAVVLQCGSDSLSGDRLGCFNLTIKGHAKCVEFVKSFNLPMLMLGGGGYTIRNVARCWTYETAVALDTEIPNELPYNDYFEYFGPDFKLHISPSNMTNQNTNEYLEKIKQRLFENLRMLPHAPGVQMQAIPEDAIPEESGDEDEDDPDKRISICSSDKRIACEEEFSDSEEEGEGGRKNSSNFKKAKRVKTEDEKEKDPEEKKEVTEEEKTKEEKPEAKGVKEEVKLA

Row | SMILES | fluorometric HDAC activity assay, 5 uM [1] | fluorometric HDAC activity assay, 5 uM [2] | fluorometric HDAC activity assay, 0.5 or 5 uM [3] | Kd [4] [nM] | fluorometric HDAC activity assay, 0.5 or 5 uM [5] | fluorometric HDAC activity assay, 0.5 or 5 uM [6]
1 | CCCCCCCCCCCCC/C=C/[C@@H](O)[C@@H](N)COP(=O)(O)O [S1P] | Even though S1P inhibited HDAC1–HDAC3, it did not inhibit HDAC8 activity | Even though S1P inhibited HDAC1–HDAC3, it did not inhibit HDAC8 activity |  |  |  | 
2 | CCCCCCCCc1ccc(CC[C@](N)(CO)COP(=O)(O)O)cc1 [FTY720-P] |  |  | FTY720-P inhibited the activities of highly purified recombinant class I HDACs (HDAC1, HDAC2, HDAC3 and HDAC8) | 6.2 | FTY720-P inhibited the activities of highly purified recombinant class I HDACs (HDAC1, HDAC2, HDAC3 and HDAC8) | FTY720-P inhibited the activities of highly purified recombinant class I HDACs (HDAC1, HDAC2, HDAC3 and HDAC8)
